Test results as given in patent publication US20230016007A1, “SOLUTIONS AND METHODS FOR FORMING AN EXOGENOUS FLEXIBLE FILM, WHICH INCLUDES A SUPPLEMENTAL COMPONENT, ON A PLANT AND PLANTS INCLUDING THE EXOGENOUS FLEXIBLE FILM” (Cultiva, LLC, priority 2017, published 2023).

Test system: grey mold (Botrytis cinerea)
Test: grey mold on Frontelis strawberries 7 days post-harvest (FIG. 11)
Method: The four groups were evaluated for infestation with grey mold 7 days post-harvest.

## CC1(C(=O)Nc2ccc(O)c(Cl)c2Cl)CCCCC1 [Fenhexamid]
  infestation with grey mold: exhibited at least some infestation
